Measurements reported in patent US20240207414A1, “DISULFIDE-BASED PRODRUG COMPOUND” (Ludwig-Maximilians-Universitat Munchen, priority 2021, published 2024).

Legend:
[1] = target: T1, GR/GSH/Grx (glutaredoxin 1, Grx1) (Homo sapiens, UniProt P35754); assay: Enzymatic activation assay: GR/GSH/Grx1; format: biochemical; conditions: full mixture NADPH/GR/GSH/Grx1
T1 sequence (P35754 1-106): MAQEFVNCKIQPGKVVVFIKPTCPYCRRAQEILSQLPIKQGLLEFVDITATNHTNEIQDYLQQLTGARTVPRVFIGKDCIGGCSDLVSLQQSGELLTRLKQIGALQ
Excerpt: (§1) This assay (see FIG. 2) examined the resistance of disulfide-based reduction-triggered compounds to the major cellular enzymatic systems that maintain redox homeostasis and are capable of reducing disulfides, evaluated in a cell-free assay, to see if these compounds can be useful for selective enzyme-triggered release.
(§2) Assay conditions: A black 96-well plate with black bottom was charged with solutions of fluorophore-releasing reduction-triggered probes that are compounds of the invention (P1, P2) or that are not compounds of the invention and reveal the performance of prior art systems (X19) (50 μL; 40 μM in aq. TE buffer (pH 7.4) and 4 μL DMSO). Separately, master mixes (30 μL in aq. TE buffer (pH 7.4)) containing mixtures of the proteins human recombinant thioredoxin 1 (Trx1, 0.166-16.66 μM) or thioredoxin 2 (Trx2, 3.3 μM), or human recombinant glutaredoxin 1 (“Grx1”, 3.3 μM) or glutaredoxin 2 (Grx2, 3.3 μM) and/or oxidoreductases human recombinant thioredoxin reductase 1 (TrxR1, 0.07 μM), the thioredoxin reductase Secys498Cys mutant (TrxR1-U498C, 0.07 μM), thioredoxin reductase 2 (TrxR2, 0.07 μM) or human recombinant glutathione reductase (GR, 0.07 μM), and/or GSH (3.3 μM) were prepared. Note that TrxR1 (U498C) has decreased reducing power compared to TrxR1 due to the mutation of the key vicinal selenothiol/thiol into a vicinal dithiol, but it still reduces Trx1. […]
(§3) Data Representation: (F(t)-F^NADPH(t)) is the fluorescence intensity of the test solution at time t, from which is subtracted a background fluorescence level also at time t from a solution with NADPH (which itself is fluorescent, and is present in 10-fold higher concentration than the probe) and with the same protein mixture but without the probe. F^max(t) is the maximum possible fluorescence intensity value at time t, determined by incubation with TCEP (100 μM)) similarly as for the chemical reductant assay. (F(t)−F^NADPH(t))/F^max(t) thus gives the timecourse of fluorescence signal, as a fraction of the maximum possible fluorescence signal. […]

[2] = system: HeLa, A549 and MEF cells; assay: Cellular reduction assay (FIG. 3); format: cell-based, human, mouse; conditions: 100 μM, 1% vol DMSO, cells under ordinary conditions
Protocol: Assay Conditions: Cells were cultured under standard conditions (Gao, L. et al. Cell Chemical Biology 2021, 28, 1-14. https://doi.org/10.1016/j.chembiol.2020.11.007), left to adhere for 24 h, then compounds were added to 100 μM with 1% vol DMSO. Fluorescence timecourse measurements were acquired as in the chemoreductant assay, with all conditions in triplicates.
Data Representation: F(t)-F(0) is the fluorescence intensity signal increase as compared to time zero signal (fluorescence intensity immediately following compound addition, before probe activation can occur), in arbitrary units although with the same detection settings for all probes releasing the same cargo. This corresponds to reduction-triggered cargo release. “ctrf” indicates cells not treated with probes, as a negative control.

[3] = target: T2, NADPH/TrxR1/Trx1 (Homo sapiens, UniProt P10599); assay: Enzymatic activation assay: NADPH/TrxR1/Trx1 system; format: biochemical; conditions: NADPH/TrxR1 plus Trx1, 37° C., 6 h
T2 sequence (P10599 1-105): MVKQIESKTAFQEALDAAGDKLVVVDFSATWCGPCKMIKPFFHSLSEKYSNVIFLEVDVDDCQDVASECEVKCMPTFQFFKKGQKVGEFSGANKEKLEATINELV
Excerpt: as §1, §2, §3

[4] = Chemical reductant assay: GSH challenge (cell-free); format: physicochemical; conditions: aq. TE buffer pH 7.4, 37° C., 6 h, GSH 0.01-10 mM
Excerpt: This assay (see FIG. 1) examined the stability of disulfide-based reduction-triggered compounds of the invention when exposed to monothiol reductants, primarily the major physiological cellular monothiol GSH, and dithiol reductants like the disulfide reductant dithiothreitol (DTT), as evaluated in a cell-free assay, to determine whether these compounds can be useful for selective release.
Assay Conditions: A black 96-well plate with black bottom was charged with solutions of fluorophore-releasing reduction-triggered probes that are compounds of the invention (P1, P2, P3, P4 and P5) or that are not compounds of the invention and reveal the performance of prior art systems (X19) (80 μL; 25 μM in aq. TE buffer (pH 7.4) and 1.25% vol DMSO). Solutions of challenge species chosen from the monothiol glutathione (GSH, 0.1-50 mM) and the dithiol reductant dithiothreitol (DTT, 0.1-50 mM) or phosphine reductant tris-(2-carboxyethyl) phosphine (TCEP); (20 μL; 1 mM in aq. TE buffer (pH 7.4) were added and the reaction mixtures were incubated at 37° C. for 6 h while measuring fluorescence intensity over time [F(t)] using a BMG Labtech FLUOstar Omega platereader (λexc=355 nm, Δem=530 nm for PQ-OH-releasing probes X19, P1 and P2; Δexc=485 nm, Δem=530 nm for MF-OH-releasing probes P3 and P4.
Data Representation: F^max is the maximum possible fluorescence increase corresponding to complete reduction-triggered cargo release, i.e. the fluorescence intensity increase from time zero to signal plateau under TCEP incubation PQ-OH-releasing probes. F(t)/F^max(t) thus gives the timecourse measurements of fluorescence intensity, as a fraction of the maximum possible fluorescence signal. F^sat is the endpoint fluorescence intensity increase for each condition, ie. F^sat=(F(6 h)). F^sat/F^max thus gives the assay endpoint fluorescence intensity increase, as a fraction of the maximum possible fluorescence signal. In the GSH timecourse measurements shown in FIG. 1, all datasets annotated with concentrations only (0.01-10 mM) refer to GSH challenges, while datasets for TCEP positive control (100 μM) and no-reductant control (blank) are shown for comparison. The dose-response plots show F^sat/F^max for the different ratios between probe and GSH or probe and DTT concentrations, with a logarithmic horizontal scale.

Molecule: O=C(Oc1ccc(Cl)cc1-c1nc2ccc(Cl)cc2c(=O)[nH]1)N1CCC[C@@H]2CSSC[C@H]21 (racemic) [Compound P1, 4-chloro-2-(6-chloro-4-oxo-3,4-dihydroquinazolin-2-yl)phenyl-(trans)-hexahydro-[1,2]dithiino[4,5-b]pyridine-1(2H)-carboxylate]
- cargo release / processing by GR/GSH/Grx1 [1]: only processed by high levels of Grx1 and Grx2
- cargo release inside cells (fluorescence signal increase over time) [2]: do not release cargo inside cells under ordinary conditions
- cargo release / processing by TrxR plus Trx1 [3]: processed when additional high levels of Trx1 and Trx2 are added
- cargo release (fluorescence) when challenged with monothiol reductant GSH [4]: do not release cargo

Molecule: 4-chloro-2-(6-chloro-4-oxo-3,4-dihydroquinazolin-2-yl)phenyl methyl(2-((2-(methyl amino)ethyl)disulfaneyl)ethyl)carbamate [Compound X19, reference compound]
- cargo release / processing by GR/GSH/Grx1 [1]: enhanced reaction kinetics
- cargo release inside cells (fluorescence signal increase over time) [2]: substantially release cargo inside cells cultured under ordinary conditions
- cargo release / processing by TrxR plus Trx1 [3]: enhanced reaction kinetics
- cargo release (fluorescence) when challenged with monothiol reductant GSH [4]: already unstable to the monothiol GSH

Molecule: O=C(Oc1ccc(Cl)cc1-c1nc2ccc(Cl)cc2c(=O)[nH]1)N1CCC[C@@H]2CSSC[C@@H]21 (racemic) [Compound P2, 4-chloro-2-(6-chloro-4-oxo-3,4-dihydroquinazolin-2-yl)phenyl-(cis)-hexahydro-[1,2]dithiino[4,5-b]pyridine-1(2H)-carboxylate]
- cargo release / processing by GR/GSH/Grx1 [1]: only processed by high levels of Grx1 and Grx2
- cargo release inside cells (fluorescence signal increase over time) [2]: do not release cargo inside cells under ordinary conditions
- cargo release / processing by TrxR plus Trx1 [3]: processed when additional high levels of Trx1 and Trx2 are added
- cargo release (fluorescence) when challenged with monothiol reductant GSH [4]: do not release cargo
